Data on 14 compounds can be found in patent US8044208B2 (Sanofi-Aventis, priority 2005, dated 2011).

This experiment deals with T1, TAFIa (Homo sapiens, UniProt Q96IY4).
T1 construct: purchased American Diagnostica 874TAFIA
T1 sequence (Q96IY4 115-423): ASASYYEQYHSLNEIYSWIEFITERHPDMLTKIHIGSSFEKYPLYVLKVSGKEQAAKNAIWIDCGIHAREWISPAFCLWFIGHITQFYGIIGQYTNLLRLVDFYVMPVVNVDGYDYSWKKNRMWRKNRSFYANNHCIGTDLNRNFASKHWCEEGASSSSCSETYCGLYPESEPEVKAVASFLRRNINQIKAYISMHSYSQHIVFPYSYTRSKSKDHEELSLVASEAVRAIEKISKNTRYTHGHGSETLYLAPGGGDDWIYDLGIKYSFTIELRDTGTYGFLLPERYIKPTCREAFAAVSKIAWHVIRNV
The experiment in a line: TAFIa enzyme assay (Actichrome plasma TAFI activity kit). The conditions noted are these: 15 min preincubation at room temperature, read at 420 nm, duplicate determination. The class given is biochemical. As for the experimental part:
The prepared substances were tested for TAFIa inhibition using the Actichrome plasma TAFI activity kit from American Diagnostica (Pr. No. 874). This entailed adding 29 μl of assay buffer (20 mM Hepes, 150 mM NaCl, pH 7.4) and 10 μl of TAFIa (American Diagnostica Pr. No. 874TAFIA; […]) to 1 μl of 5 mM DMSO solution of the substance and incubating in a 96 half-well microtiter plate at room temperature for 15 minutes. The enzymic reaction was started by adding 10 μl of TAFIa developer (prediluted 1:2 with water). The time course of the reaction was followed at 420 nm in a microtiter plate reader (SpectraMax plus 384; Molecular Devices) for 15 minutes. The IC50 values were calculated from the averaged values (duplicate determination) of serial dilutions of the substance with the aid of the Software Grafit 4 (Erithacus Software, UK).

One may read the IC50 as the concentration at which inhibition is half-maximal. A higher IC50 goes with weaker potency in that assay. The compound `Nc1ccc(CC(C(=O)O)c2cn(Cc3cc(-c4ccc(Cl)s4)on3)cn2)cn1` (centres unmarked) [Example 1, 3-(6-Aminopyridin-3-yl)-2-{1-[5-(5-chlorothiophen-2-yl)isoxazol-3-ylmethyl]-1H-imidazol-4-yl}propionic acid] came in with a 50% inhibitory concentration (IC50) of 41 nM. In other words, the double-digit nanomolar range.
Take `Nc1ccc(CC(C(=O)O)c2cn(Cc3cnc(-c4ccc(Cl)s4)s3)cn2)cn1` (centres unmarked) [Example 3, 3-(6-Aminopyridin-3-yl)-2-{1-[2-(5-chlorothiophen-2-yl)thiazol-5-ylmethyl]-1H-imidazol-4-yl}propionic acid]: the IC50 turned out to be 326 nM.
As for `COc1ccc(-c2cc(Cn3cnc(C(Cc4ccc(N)nc4)C(=O)O)c3)no2)cc1` (centres unmarked) [Example 5, 3-(6-Aminopyridin-3-yl)-2-{1-[5-(4-methoxyphenyl)isoxazol-3-ylmethyl]-1H-imidazol-4-yl}propionic acid], the IC50 amounted to 104 nM.
In the case of `Nc1ccc(CC(C(=O)O)c2cn(Cc3nnc(-c4ccc(Cl)cc4)s3)cn2)cn1` (centres unmarked) [Example 8, 3-(6-Aminopyridin-3-yl)-2-{1-[5-(4-chlorophenyl)-[1,3,4]thiadiazol-2-ylmethyl]-1H-imidazol-4-yl}propionic acid], half-maximal inhibition (IC50) was put at 41 nM.
The value for `CC(C)(C)c1nnc(Cn2cnc(C(Cc3ccc(N)nc3)C(=O)O)c2)s1` (centres unmarked) [Example 9, 3-(6-Aminopyridin-3-yl)-2-[1-(5-tert-butyl-[1,3,4]thiadiazol-2-ylmethyl)-1H-imidazol-4-yl]propionic acid] was 169 nM; that for `Nc1ccc(CC(C(=O)O)c2cn(Cc3noc(-c4ccc(C(F)(F)F)cc4)n3)cn2)cn1` (centres unmarked) [Example 10, 3-(6-Aminopyridin-3-yl)-2-{1-[5-(4-trifluoromethylphenyl)-[1,2,4]oxadiazol-3-ylmethyl]-1H-imidazol-4-yl}propionic acid] was 258 nM; that for `Nc1ccc(CC(C(=O)O)c2cn(Cc3nnc(C4CC4)s3)cn2)cn1` (centres unmarked) [Example 12, 3-(6-Aminopyridin-3-yl)-2-[1-(5-cyclopropyl-[1,3,4]thiadiazol-2-ylmethyl)-1H-imidazol-4-yl]propionic acid] was 30 nM.
The value for `COc1ccc(-c2nc(Cn3cnc(C(Cc4ccc(N)nc4)C(=O)O)c3)no2)cc1` (centres unmarked) [Example 15] was 223 nM; that for `CC(C)(C)c1ccc(-c2noc(Cn3cnc(C(Cc4ccc(N)nc4)C(=O)O)c3)n2)cc1` (centres unmarked) [Example 17, 3-(6-Aminopyridin-3-yl)-2-{1-[3-(4′-tert-butylphenyl)-[1,2,4]oxadiazol-5-ylmethyl]-1H-imidazol-4-yl}propionic acid] was 745 nM.
Compound `Cc1nc(-c2cc(Cn3cnc(C(Cc4ccc(N)nc4)C(=O)O)c3)no2)cs1` (centres unmarked) [Example 18, 3-(6-Aminopyridin-3-yl)-2-{1-[5-(2-methylthiazol-4-yl)isoxazol-3-ylmethyl]-1H-imidazol-4-yl}propionic acid] yielded a 50% inhibitory concentration (IC50) of 326 nM. Against the preceding compound, the IC50 is about 2.3-fold lower.
The value for `COc1ccc(-c2nnc(Cn3cnc(C(Cc4ccc(N)nc4)C(=O)O)c3)s2)cc1` (centres unmarked) [Example 22, 3-(6-Aminopyridin-3-yl)-2-{1-[5-(4-methoxyphenyl)-[1,3,4]thiadiazol-2-ylmethyl]-1H-imidazol-4-yl}propionic acid] was 78 nM.
For the compound `CCC(C)c1ccc(-c2cc(Cn3cnc(C(Cc4ccc(N)nc4)C(=O)O)c3)no2)cc1` (centres unmarked) [Example 46, 3-(6-Aminopyridin-3-yl)-2-{1-[5-(4-sec-butylphenyl)isoxazol-3-ylmethyl]-1H-imidazol-4-yl}propionic acid], the IC50 was 3 nM.
In turn, `Nc1ccc(C[C@H](C(=O)O)c2cn(Cc3cc(-c4ccc(Cl)s4)on3)cn2)cn1` [Example 58, (S)-3-(6-Aminopyridin-3-yl)-2-{1-[5-(5-chlorothiophen-2-yl)isoxazol-3-ylmethyl]-1H-imidazol-4-yl}propionic acid] yielded an IC50 of 4 nM. The IC50 values of the last two compounds are within 1.5-fold of each other.
With `Cc1cc(CC(C(=O)O)c2cn(Cc3nnc(C4CC4)s3)cn2)cnc1N` (centres unmarked) [Example 61, 3-(6-Amino-5-methylpyridin-3-yl)-2-[1-(5-cyclopropyl-[1,3,4]thiadiazol-2-ylmethyl)-1H-imidazol-4-yl]propionic acid] the figure was 26 nM.
